# Source: patent publication US9440950B2, “Arginine methyltransferase inhibitors and uses thereof” (Epizyme, Inc., priority 2013, dated 2016)
# Biological target: T1, Human CARM1 (PRMT4) (Homo sapiens, UniProt Q86X55)
# T1 construct: Flag-CARM1-His; made in house; host or cells: HEK 293F cells (BacMam virus, pFastBacMam)
# T1 sequence (Q86X55 1-585 isoform Q86X55-1): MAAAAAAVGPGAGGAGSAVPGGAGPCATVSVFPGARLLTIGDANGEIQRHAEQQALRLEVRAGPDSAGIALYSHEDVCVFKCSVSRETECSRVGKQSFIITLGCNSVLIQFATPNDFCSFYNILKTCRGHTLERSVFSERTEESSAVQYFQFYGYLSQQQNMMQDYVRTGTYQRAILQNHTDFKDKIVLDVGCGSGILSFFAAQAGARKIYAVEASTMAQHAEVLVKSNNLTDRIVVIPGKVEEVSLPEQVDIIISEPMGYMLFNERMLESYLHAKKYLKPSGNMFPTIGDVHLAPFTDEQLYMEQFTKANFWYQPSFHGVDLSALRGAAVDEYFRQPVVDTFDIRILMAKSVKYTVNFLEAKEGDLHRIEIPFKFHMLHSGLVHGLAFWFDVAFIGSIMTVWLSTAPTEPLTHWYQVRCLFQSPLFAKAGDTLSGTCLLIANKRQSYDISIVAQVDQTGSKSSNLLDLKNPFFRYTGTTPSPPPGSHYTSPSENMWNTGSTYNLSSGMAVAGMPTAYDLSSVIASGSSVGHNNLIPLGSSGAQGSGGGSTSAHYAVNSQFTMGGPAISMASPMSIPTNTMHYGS
# Test: CARM1 Biochemical Assay
# Settings: peptide substrate, 3H-SAM Flashplate assay
# Source text: S-adenosylmethionine (SAM), S-adenosylhomocysteine (SAH), bicine, Tween20, dimethylsulfoxide (DMSO), bovine skin gelatin (BSG), sodium butyrate and Tris(2-carboxyethyl)phosphine hydrochloride solution (TCEP) were purchased from Sigma-Aldrich at the highest level of purity possible. ^3H-SAM was purchase from American Radiolabeled Chemicals with a specific activity of 80 Ci/mmol. 384-well streptavidin Flashplates were purchased from PerkinElmer.
# Peptide representative of human histone H3 residues 16-30 was synthesized with an N-terminal linker-affinity tag motif and a C-terminal amide cap by 21st Century Biochemicals. The peptide was purified by high-performance liquid chromatography (HPLC) to greater than 95% purity and confirmed by liquid chromatography mass spectrometry (LC-MS). The sequence was Biot-Ahx-[…]-amide and contained a monomethylated arginine at position 26 (SEQ ID NO.:14).
# Human CARM1 (PRMT4) (NM_199141.1) transcript clone was amplified from an HEK 293 cDNA library, incorporating a flanking 5′ sequence encoding a FLAG tag ([…]) (SEQ ID NO.:6) fused directly to Ala 2 of CARM1 and 3′ sequence encoding a hexa His sequence ([…]) (SEQ ID NO.:15) fused directly to Ser 608. The gene sequence encoding isoform1 containing a deletion of amino acids 539-561 was amplified subsequently and subcloned into pFastBacMam (Viva Biotech).
# Recombinant baculovirus were generated according to Bac-to-Bac kit instructions (Life Technologies). […] Infections were carried out at 37° C. for 48 hours, harvested by centrifugation, and stored at −80° C. for purification.
# Column was washed with 500 mM NaCl in buffer A and Flag-CARM1-His was eluted with 200 ug/ml FLAG peptide in buffer A. Pooled fractions were dialyzed in 20 mM Tris, 150 mM NaCl, 5% glycerol and 1 mM DTT, pH 7.8. The purity of recovered protein was 94.
# General Procedure for CARM1 Enzyme Assays on Peptide Substrates.
# The assays were all performed in a buffer consisting of 20 mM Bicine (pH=7.6), 1 mM TCEP, 0.005% BSG, and 0.002% Tween 20, prepared on the day of use. Compounds in 100% DMSO (1 ul) were spotted into a polypropylene 384-well V-bottom plates (Greiner) using a Platemate Plus outfitted with a 384-channel head (Thermo Scientific). DMSO (1 ul) was added to Columns 11, 12, 23, 24, rows A-H for the maximum signal control and 1 ul of SAH, a known product and inhibitor of CARM1, was added to columns 11, 12, 23, 24, rows I-P for the minimum signal control. A cocktail (40 ul) containing the CARM1 enzyme was added by Multidrop Combi (Thermo-Fisher). The compounds were allowed to incubate with CARM1 for 30 min at room temperature, then a cocktail (10 ul) containing ^3H-SAM and peptide was added to initiate the reaction (final volume=51 ul). The final concentrations of the components were as follows: CARM1 was 0.25 nM, ^3H-SAM was 30 nM, peptide was 250 nM, SAH in the minimum signal control wells was 1 mM, and the DMSO concentration was 2%. The assays were stopped by the addition of non-radiolabeled SAM (10 ul) to a final concentration of 300 uM, which dilutes the ^3H-SAM to a level where its incorporation into the peptide substrate is no longer detectable. 50 ul of the reaction in the 384-well polypropylene plate was then transferred to a 384-well Flashplate and the biotinylated peptides were allowed to bind to the streptavidin surface for at least 1 hour before being washed once with 0.1% Tween20 in a Biotek ELx405 plate washer. The plates were then read in a PerkinElmer TopCount plate reader to measure the quantity of ^3H-labeled peptide bound to the Flashplate surface, measured as disintegrations per minute (dpm) or alternatively, referred to as counts per minute (cpm).
# Where dpm=disintegrations per minute, cmpd=signal in assay well, and min and max are the respective minimum and maximum signal controls.
# Where top and bottom are the normally allowed to float, but may be fixed at 100 or 0 respectively in a 3-parameter fit. […]
row,SMILES,IC50
1,CNCCN(C)Cc1c[nH]nc1-c1cccnc1 [Compound 1],1.01 to 3 µM
2,CNCCN(C)Cc1c[nH]nc1-c1ccc(O)nc1 [Compound 2],≥ 10 µM
3,CNCCN(C)Cc1c[nH]nc1-c1ccc(N)nc1 [Compound 3],3.01 to 10 µM
4,CN(CCN)Cc1c[nH]nc1-c1cncc(S(C)(=O)=O)c1 [Compound 4],≥ 10 µM
5,COc1ccc(-c2n[nH]cc2CN(C)CCN)cn1 [Compound 5],3.01 to 10 µM
6,Cc1cncc(-c2n[nH]cc2CN(C)CCN)c1 [Compound 6],≥ 10 µM
7,CN(CCN)Cc1c[nH]nc1-c1cncc(F)c1 [Compound 7],1.01 to 3 µM
8,CN(CCN)Cc1c[nH]nc1-c1cccnc1 [Compound 8],3.01 to 10 µM
9,CN(CCN)Cc1c[nH]nc1-c1ccncc1 [Compound 9],3.01 to 10 µM
10,Cc1cc(-c2n[nH]cc2CN(C)CCN)cnc1Cl [Compound 10],0.101 to 1 µM
